Test results: PMC6268252, “Synthesis and Antiviral Activity of Conformational Analogues of Leucamide A” (Molecules, 2012)
Like-named read-outs stand apart in the source and are kept apart here.

How the values were obtained:
[1] = test system: Influenza A virus H3N2 (A3 China/15/90); test: Inhibition of influenza A virus replication (virus-induced CPE) in MDCK cells; type: cell-based; settings: influenza A H3N2 (A3 China/15/90); for activity against influenza A virus (in words): MDCK cells; for IC50: concentration required to reduce virus-induced CPE in MDCK cells by 50%
in vitro = settings: dog
[2] = test system: Influenza A virus H3N2 (A3 China/15/90); design: method as in PMID 16183283; settings: previously reported active compound; read-out: IC50 against influenza A virus; cited from earlier work
several tumor cell lines = test system: several tumor cell lines; design: method as in PMID 12098321; settings: cited from earlier work
[3] = test system: influenza A virus, herpes simplex type 2 virus (HSV2), hepatitis B virus (HBV); design: method as in PMID 16183283, PMID 18663717; settings: reported before; cited from earlier work

Row | Structure (SMILES) | activity against influenza A virus (in words) [1] | CC50 (in vitro) [µM] | IC50 [1] [µM] | IC50 [2] [µM] | cytotoxicity toward tumor cell lines (in words) (several tumor cell lines) | antiviral activity (in words) [3]
1 | Cc1oc2nc1C(=O)N[C@@H](C)c1nc(co1)C(=O)NCC(=O)N[C@@H](C(C)C)c1nc-2cs1 [Compound 2] | inactive | > 273 | – | – | – | –
2 | Cc1oc2nc1C(=O)N[C@@H](C)c1nc(co1)C(=O)NCCC(=O)N[C@@H](C(C)C)c1nc-2cs1 [Compound 3] | – | > 265 | 163 | – | – | –
3 | Cc1oc2nc1C(=O)N[C@@H](C)c1nc(co1)C(=O)NCCCC(=O)N[C@@H](C(C)C)c1nc-2cs1 [Compound 4] | – | 595 | 115 | – | – | –
4 | Cc1oc2nc1C(=O)N[C@@H](C)c1nc(co1)C(=O)NCCCCC(=O)N[C@@H](C(C)C)c1nc-2cs1 [Compound 5] | – | 578 | 258 | – | – | –
5 | Cc1oc2nc1C(=O)N[C@@H](C)c1nc(co1)C(=O)NCCCCCC(=O)N[C@@H](C(C)C)c1nc-2cs1 [Compound 6] | – | 374 | 41 | – | – | –
6 | COc1ccccc1C(=O)N[C@H](c1nc(-c2nc(C(=O)O)c(C)o2)cs1)C(C)C [Compound 10] | – | – | – | 70 | – | –
7 | Cc1oc2nc1C(=O)N[C@@H](C)c1nc(co1)C(=O)N[C@@H](CC(C)C)C(=O)N1CCC[C@H]1C(=O)N[C@@H](C(C)C)c1nc-2cs1 [Leucamide A] | inactive | 787 | – | – | moderately cytotoxic | did not show any antiviral activity
8 | NC(=O)c1ncn([C@@H]2O[C@H](CO)[C@@H](O)[C@H]2O)n1 [Ribavirin, reference compound] | – | > 8200 | 16 | – | – | –
